pIC50: −log10 of the molar value.

The target in one assay is mouse TRPM3α2 (mTRPM3) ion channel (Mus musculus (Mouse), UniProt J9SQF3). The experiment in a line: TRPM3 ion channel driven Ca2+ uptake, Fluo-4 AM assay, mTRPM3alpha2 overexpressing flip-in HEK293 cells stimulated with pregnenolone sulfate. As to conditions: PS 50 μM, cpds 200-299. The assay is classed as cell-based. The essentials: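 Read-out is Ca2+ influx via Fluo-4 AM fluorescence at 485/535 nm, taken right after seeding ~2000 cells/well onto compound with 50 μM PS. Inhibition computed from RFU between vehicle-stimulated and positive-control-inhibitor wells; cells were mTRPM3α2-overexpressing flip-in HEK293.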
mouse TRPM3α2 (mTRPM3) ion channel, sequence (J9SQF3 other isoform, or with tags, fused parts or gaps): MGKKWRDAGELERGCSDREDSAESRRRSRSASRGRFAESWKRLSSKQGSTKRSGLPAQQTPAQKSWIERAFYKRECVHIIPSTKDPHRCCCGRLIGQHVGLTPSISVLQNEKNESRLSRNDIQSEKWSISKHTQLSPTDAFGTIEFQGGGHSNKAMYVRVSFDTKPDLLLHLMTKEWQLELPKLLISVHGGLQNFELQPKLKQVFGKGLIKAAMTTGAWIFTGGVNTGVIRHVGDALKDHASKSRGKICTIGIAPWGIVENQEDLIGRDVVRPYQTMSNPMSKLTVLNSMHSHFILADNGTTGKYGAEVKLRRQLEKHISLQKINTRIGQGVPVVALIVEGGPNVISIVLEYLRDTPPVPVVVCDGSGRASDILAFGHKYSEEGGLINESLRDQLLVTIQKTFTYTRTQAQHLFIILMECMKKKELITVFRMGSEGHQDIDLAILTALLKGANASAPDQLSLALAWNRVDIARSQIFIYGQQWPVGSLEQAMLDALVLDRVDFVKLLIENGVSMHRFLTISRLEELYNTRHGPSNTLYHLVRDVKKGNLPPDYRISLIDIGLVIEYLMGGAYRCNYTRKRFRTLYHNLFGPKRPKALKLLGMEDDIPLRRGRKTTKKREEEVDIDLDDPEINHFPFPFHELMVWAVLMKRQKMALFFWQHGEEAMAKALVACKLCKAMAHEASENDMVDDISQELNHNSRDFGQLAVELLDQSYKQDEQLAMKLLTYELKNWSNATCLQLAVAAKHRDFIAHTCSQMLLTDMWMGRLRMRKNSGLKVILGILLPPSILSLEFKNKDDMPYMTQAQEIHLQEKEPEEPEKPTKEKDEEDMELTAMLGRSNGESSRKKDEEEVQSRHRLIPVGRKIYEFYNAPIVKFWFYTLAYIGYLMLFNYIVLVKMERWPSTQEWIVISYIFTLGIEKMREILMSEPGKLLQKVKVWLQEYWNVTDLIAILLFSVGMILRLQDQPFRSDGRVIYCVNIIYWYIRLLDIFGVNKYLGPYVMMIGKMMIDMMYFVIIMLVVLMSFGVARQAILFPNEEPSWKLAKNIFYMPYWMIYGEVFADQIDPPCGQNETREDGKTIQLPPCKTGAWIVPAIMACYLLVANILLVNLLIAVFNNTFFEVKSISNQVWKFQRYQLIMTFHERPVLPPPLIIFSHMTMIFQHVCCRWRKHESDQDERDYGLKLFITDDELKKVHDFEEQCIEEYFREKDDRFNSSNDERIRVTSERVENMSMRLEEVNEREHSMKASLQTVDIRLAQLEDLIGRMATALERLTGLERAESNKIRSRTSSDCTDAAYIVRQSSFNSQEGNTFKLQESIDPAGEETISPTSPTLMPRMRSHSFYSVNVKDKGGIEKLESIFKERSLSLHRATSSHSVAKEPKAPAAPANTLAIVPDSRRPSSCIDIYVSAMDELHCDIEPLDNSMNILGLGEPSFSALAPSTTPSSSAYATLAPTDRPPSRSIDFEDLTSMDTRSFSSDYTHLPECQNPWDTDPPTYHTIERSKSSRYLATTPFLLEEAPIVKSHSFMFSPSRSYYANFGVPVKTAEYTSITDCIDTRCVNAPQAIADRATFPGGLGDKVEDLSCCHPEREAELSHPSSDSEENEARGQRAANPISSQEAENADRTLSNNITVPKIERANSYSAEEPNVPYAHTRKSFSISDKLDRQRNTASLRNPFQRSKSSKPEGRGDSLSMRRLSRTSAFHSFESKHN
As a reminder, the IC50 is the concentration that inhibits the measured activity by half. `Cc1oc2ccc(OCc3cccnc3C(F)(F)F)cc2c1C(=O)NC1(CO)CC1` [compound 200, N-(1-(hydroxymethyl)cyclopropyl)-2-methyl-5-((2-(trifluoromethyl)pyridin-3-yl)methoxy) -benzofuran-3-carboxamide] registered an IC50 of under 1 µM. With `Cc1oc2ccc(OCc3nccn3C)cc2c1C(=O)NC1(CO)CCOCC1` [compound 204, N-(4-(hydroxymethyl)tetrahydro-2H-pyran-4-yl)-2-methyl-5-((1-methyl-1H-imidazol-2-yl) -methoxy)benzofuran-3-carboxamide], the IC50 is under 1 µM. Still for that read-out and setting: in the case of `CCOc1ncccc1COc1ccc2oc(C)c(C(=O)NC3(CO)CCOCC3)c2c1` [compound 206, 5-((2-ethoxypyridin-3-yl)methoxy)-N-(4-(hydroxymethyl)tetrahydro-2H-pyran-4-yl)-2-methyl-benzofuran-3-carboxamide] it was under 1 µM; in that of `Cc1ncsc1COc1ccc2oc(C)c(C(N)=O)c2c1` [compound 232, 2-methyl-5-((4-methylthiazol-5-yl)methoxy)benzofuran-3-carboxamide], under 1 µM.

Turning to `Cc1ncsc1COc1ccc2oc(C)c(C(=O)N[C@H](C)C(N)=O)c2c1` [compound 271, (R)-N-(1-amino-1-oxopropan-2-yl)-2-methyl-5-((4-methylthiazol-5-yl)methoxy)benzofuran-3-carboxamide], the IC50 was under 1 µM. On to `Cc1ncsc1COc1ccc2oc(C)c(C(=O)N[C@@H](CS(C)(=O)=O)C(N)=O)c2c1` [compound 272, (R)-N-(1-amino-3-(methylsulfonyl)-1-oxopropan-2-yl)-2-methyl-5-((4-methylthiazol-5-yl)methoxy)benzofuran-3-carboxamide], for which the concentration for half-maximal inhibition (IC50) is under 1 µM. The same measure, in the same setting: the same measure for `Cc1ncsc1COc1ccc2oc(C)c(C(=O)N[C@@H](C(N)=O)C(C)C)c2c1` [compound 273, (R)-N-(1-amino-3-methyl-1-oxobutan-2-yl)-2-methyl-5-((4-methylthiazol-5-yl)methoxy)benzofuran-3-carboxamide]: under 1 µM.

Still in this assay, the particulars now being: PS (50 μM) stimulated, cpd 001-199.
The term pIC50 denotes the IC50 on a negative log10 scale, so that one unit is a factor of ten. A low value points to a large IC50. Molecule `Cc1oc2ccc(OCc3cccnc3C(F)(F)F)cc2c1C(=O)NC1(CN(C)C)CCC1` [compound 140, N-(1-((dimethylamino)methyl)cyclobutyl)-2-methyl-5-((2-(trifluoromethyl)pyridin-3-yl)methoxy) -benzofuran-3-carboxamide] showed a pIC50 of over 6.00. The same measure, in the same setting: the same measure for `Cc1ncsc1COc1ccc2oc(C)c(C(=O)NC3(CO)COC3)c2c1` [compound 142, N-(3-(hydroxymethyl)oxetan-3-yl)-2-methyl-5-((4-methylthiazol-5-yl)methoxy)benzofuran-3-carboxamide]: over 6.00; for `Cc1oc2ccc(OCc3cccnc3C(F)(F)F)cc2c1C(=O)Nc1cnn(C)c1` [compound 143, 2-methyl-N-(1-methyl-1H-pyrazol-4-yl)-5-((2-(trifluoromethyl)pyridin-3-yl)methoxy)benzofuran-3-carboxamide]: over 6.00. Consider `Cc1ncsc1COc1ccc2oc(C)c(C(=O)Nc3cc[nH]n3)c2c1` [compound 144, 2-methyl-5-((4-methylthiazol-5-yl)methoxy)-N-(1H-pyrazol-3-yl)benzofuran-3-carboxamide], for which the pIC50 was over 6.00. Same read-out and setting: the same measure for `Cc1ncsc1COc1ccc2oc(C)c(C(=O)NC3(CNCC(F)(F)F)CCC3)c2c1` [compound 145, 2-methyl-5-((4-methylthiazol-5-yl)methoxy)-N-(1-(((2,2,2-trifluoroethyl)amino)methyl)cyclobutyl) -benzofuran-3-carboxamide]: over 6.00; for `Cc1oc2ccc(OCc3cccnc3C(F)(F)F)cc2c1C(=O)Nc1ccn(C)n1` [compound 146, 2-methyl-N-(1-methyl-1H-pyrazol-3-yl)-5-((2-(trifluoromethyl)pyridin-3-yl)methoxy)benzofuran-3-carboxamide]: over 6.00.

Turning to `Cc1ncsc1COc1ccc2oc(C)c(C(=O)Nc3cn[nH]c3)c2c1` [compound 150, 2-methyl-5-((4-methylthiazol-5-yl)methoxy)-N-(1H-pyrazol-4-yl)benzofuran-3-carboxamide], the pIC50 is over 6.00.

For `Cc1ncsc1COc1ccc2oc(C)c(C(=O)Nc3cnn(C)c3)c2c1` [compound 152, 2-methyl-N-(1-methyl-1H-pyrazol-4-yl)-5-((4-methylthiazol-5-yl)methoxy)benzofuran-3-carboxamide], the pIC50 was over 6.00. Still for that read-out and setting: in the case of `Cc1oc2ccc(OCc3cccnc3C(F)(F)F)cc2c1C(=O)NC1(CNCC(F)(F)F)CCC1` [compound 153, 2-methyl-N-(1-(((2,2,2-trifluoroethyl)amino)methyl)cyclobutyl)-5-((2-(trifluoromethyl)pyridin-3-yl)methoxy)benzofuran-3-carboxamide] it was over 6.00; in that of `Cc1oc2ccc(OCc3cccnc3C(F)(F)F)cc2c1C(=O)Nc1ccnn1C` [compound 154, 2-methyl-N-(1-methyl-1H-pyrazol-5-yl)-5-((2-(trifluoromethyl)pyridin-3-yl)methoxy)benzofuran-3-carboxamide], over 6.00; in that of `Cc1ncsc1COc1ccc2oc(C)c(C(=O)NC3CC4(COC4)C3)c2c1` [compound 156, 2-methyl-5-((4-methylthiazol-5-yl)methoxy)-N-(2-oxaspiro[3,3]heptan-6-yl)benzofuran-3-carboxamide], over 6.00.

For the molecule `Cc1oc2ccc(OCc3cccnc3C(F)(F)F)cc2c1C(=O)Nc1cn[nH]c1` [compound 158, 2-methyl-N-(1H-pyrazol-4-yl)-5-((2-(trifluoromethyl)pyridin-3-yl)methoxy)benzofuran-3-carboxamide], the negative-log IC50 (pIC50) was over 6.00.

For `Cc1ncsc1COc1ccc2oc(C)c(C(=O)Nc3ccn(C)n3)c2c1` [compound 161, 2-methyl-N-(1-methyl-1H-pyrazol-3-yl)-5-((4-methylthiazol-5-yl)methoxy)benzofuran-3-carboxamide], the pIC50 was over 6.00. On the same count and under the same terms, in the case of `Cc1ncsc1COc1ccc2oc(C)c(C(=O)NC3CCN(CC(F)(F)F)CC3)c2c1` [compound 166, 2-methyl-5-((4-methylthiazol-5-yl)methoxy)-N-(1-(2,2,2-trifluoroethyl)piperidin-4-yl)benzofuran-3-carboxamide] it was over 6.00; in that of `Cc1oc2ccc(OCc3cccnc3C(F)(F)F)cc2c1C(=O)NC1CC2(COC2)C1` [compound 167, 2-methyl-N-(2-oxaspiro[3.3]heptan-6-yl)-5-((2-(trifluoromethyl)pyridin-3-yl)methoxy)benzofuran-3-carboxamide], over 6.00. Same read-out and setting: in the case of `Cc1oc2ccc(OCc3cccnc3C(F)(F)F)cc2c1C(=O)NC1CCN(CC(F)(F)F)CC1` [compound 168, 2-methyl-N-(1-(2,2,2-trifluoroethyl)piperidin-4-yl)-5-((2-(trifluoromethyl)pyridin-3-yl)methoxy) -benzofuran-3-carboxamide] it was over 6.00.

With `Cc1oc2ccc(OCc3cccnc3C(F)(F)F)cc2c1C(=O)OCC1(N)CCOC1` (stereo not drawn) [compound 170, (3-aminotetrahydrofuran-3-yl)methyl 2-methyl-5-((2-(trifluoromethyl)pyridin-3-yl)methoxy) -benzofuran-3-carboxylate], the pIC50 was over 6.00. Regarding `Cc1ncsc1COc1ccc2oc(C)c(C(=O)Nc3ccnn3C)c2c1` [compound 171, 2-methyl-N-(1-methyl-1H-pyrazol-5-yl)-5-((4-methylthiazol-5-yl)methoxy)benzofuran-3-carboxamide], the negative-log IC50 (pIC50) is over 6.00. The same measure, in the same setting: in the case of `Cc1oc2ccc(OCc3cccnc3C(F)(F)F)cc2c1C(=O)NC1CC2(CNC2)C1` [compound 173, 2-methyl-N-(2-azaspiro[3,3]heptan-6-yl)-5-((2-(trifluoromethyl)pyridin-3-yl)methoxy)benzofuran-3-carboxamide] it was over 6.00. On the same count and under the same terms, in the case of `Cc1ncsc1COc1cc2c(C(=O)NC3(CO)CCOCC3)c(C)oc2cc1Cl` [compound 174, 6-chloro-N-(4-(hydroxymethyl)tetrahydro-2H-pyran-4-yl)-2-methyl-5-((4-methylthiazol-5-yl) -methoxy)benzofuran-3-carboxamide] it was over 6.00; in that of `Cc1oc2ccc(OCc3cccnc3C(F)(F)F)cc2c1C(=O)N[C@@H]1CN(C(=O)OCC(F)(F)F)CC1(F)F` [compound 175, 2,2,2-trifluoroethyl (R)-3,3-difluoro-4-(2-methyl-5-((2-(trifluoromethyl)pyridin-3-yl)methoxy) -benzofuran-3-carboxamido)pyrrolidine-1-carboxylate], over 6.00; in that of `Cc1ncsc1COc1ccc2oc(C)c(C(=O)NC3(CO)CCOCC3)c2c1F` [compound 177, 4-fluoro-N-(4-(hydroxymethyl)tetrahydro-2H-pyran-4-yl)-2-methyl-5-((4-methylthiazol-5-yl) -methoxy)benzofuran-3-carboxamide], over 6.00.

The molecule `Cc1ncsc1COc1cc2c(C(=O)NC3(CO)CCOCC3)c(C)oc2cc1F` [compound 182, 6-fluoro-N-(4-(hydroxymethyl)tetrahydro-2H-pyran-4-yl)-2-methyl-5-((4-methylthiazol-5-yl)methoxy)benzofuran-3-carboxamide] gave a pIC50 of over 6.00. The same measure, in the same setting: in the case of `Cc1ncsc1COc1ccc2oc(C)c(C(=O)n3ccc(N)n3)c2c1` [compound 192, (3-amino-1H-pyrazol-1-yl) (2-methyl-5-((4-methylthiazol-5-yl)methoxy)benzofuran-3-yl) -methanone] it was under 4.70; in that of `Cc1ncsc1COc1ccc2oc(C)c(C(=O)NC3(CO)CCOCC3)c2c1C#N` [compound 193], under 4.70; in that of `Cc1ncsc1COc1cc2c(C(=O)NC3(CO)CCOCC3)c(C)oc2cc1C#N` [compound 194, 6-cyano-N-(4-(hydroxymethyl)tetrahydro-2H-pyran-4-yl)-2-methyl-5-((4-methylthiazol-5-yl) -methoxy)benzofuran-3-carboxamide], under 4.70.

For the origin of these results see patent publication US12209081B2 (Katholieke Universiteit Leuven, priority 2020, dated 2025).
